According to patent US20040202736A1, “Method of ameliorating side-effects of SERMs” (Pharmaton S.A., priority 2003, published 2004):
“Also recorded” adds a separate entry of the source.

Assays:
[1] = tested on: breast cancer survivors women; experiment: Clinical practice: 1,600 breast cancer survivors treated with tamoxifen, adverse effects; assay type: in vivo
Source text: The improvements in recurrence-free survival and in overall survival have been between the ranges reported by the published literature. However, into the total treated group, we have found only one case of endometrial cancer, well differentiated and of small size (table 2).
Many of these women had recently stopped HRT, at the time the diagnosis of breast cancer was made.

[2] = tested on: hot flushes among breast cancer survivors under tamoxifen adjuvant therapy
[3] = tested on: invasive breast cancer; conditions: cited from earlier work
[4] = tested on: vasomotor symptoms of patients treated with tamoxifen; experiment: Separate uncontrolled experiences to control vasomotor symptoms of patients treated with tamoxifen; assay type: in vivo, women; conditions: given to patients treated with tamoxifen
[5] = usual-care n = 46 (six months), intervention n = 90 (end of study), tamoxifen 20 mg/day, BNO 1055 20 mg twice a day
[6] = usual-care n = 46, intervention n = 90

Molecule: CC/C(=C(\c1ccccc1)c1ccc(OCCN(C)C)cc1)c1ccccc1 [Tamoxifen, Z-2-[4-(1,2-diphenyl-1-butenyl)phenoxy]-N,N-dimethyl-ethylamine]
- patients who reported hot flushes ([1]; postmenopausal patients, tamoxifen 20 mg/day): 25%
- patients who reported hot flushes ([1]; premenopausal women, mostly severe, tamoxifen 20 mg/day): up to 74%
- withdrawal ([1]; tamoxifen 20 mg/day): < 5%
- cases of endometrial cancer ([1]; total treated group (1,600), well differentiated and of small size): one
- decline of bimonthly reported numbers of hot flushes from baseline ([2]; baseline vs six months of tamoxifen adjuvant therapy, severe or moderate hot flushes, not significant, P=0.71): 5 to 9%
- minor adverse events, number ([2]; during the study): seven
- serious events ([2]; during the study): No serious events
- Hot Flushes Severe, number of patients [2, 5]: 34
- Hot Flushes Severe, proportion of patients [2, 5]: 73.9%
- Hot Flushes Moderate, number of patients [2, 6]: 12
- Hot Flushes Moderate, proportion of patients [2, 6]: 26.1%
- reduction of the risk of invasive breast cancer ([3]; 20 mg/day, 69 months of follow-up): 49%
- effect on ER-negative tumors ([3]; 20 mg/day): no effect
- incidence of adverse events, including endometrial cancer ([3]; women younger than 50): no increased incidence

Molecule: Clc1cccc(Cl)c1N=C1NCCN1 [clonidine]
- control of vasomotor symptoms / severe hot flushes [4]: very unsatisfactory results; also recorded: failed to reach a satisfactory control

Molecule: CC(=O)[C@H]1CC[C@H]2[C@@H]3CCC4=CC(=O)CC[C@]4(C)[C@H]3CC[C@]12C [progesterone]
- control of vasomotor symptoms / severe hot flushes [4]: very unsatisfactory results; also recorded: failed to reach a satisfactory control

Molecule: Vitamin E
- control of vasomotor symptoms / severe hot flushes [4]: very unsatisfactory results; also recorded: failed to reach a satisfactory control
